According to ChEMBL document CHEMBL5120932, “Discovery and Optimization of Seven-Membered Lactam-Based Compounds to Phenocopy the Inhibition of the Aurora Kinase B” (ACS Med Chem Lett, 2022):
Active and inactive are the calls of the source. The calls are words filed in the database; no cut-off is given here.

Tests used:
NCI-H23 [1] = assay: Cytotoxicity against human NCI-H23 cells assessed as reduction in cell viability measured after 6 days by MTT assay; type: functional, cell-based; details: time 6.0 day
NCI-H460 = assay: Cytotoxicity against human NCI-H460 cells assessed as reduction in cell viability measured after 6 days by MTT assay; type: functional, cell-based; details: time 6.0 day
NCI-H596 = assay: Cytotoxicity against human NCI-H596 cells assessed as reduction in cell viability measured after 6 days by MTT assay; type: functional, cell-based; details: time 6.0 day
Calu-6 = assay: Cytotoxicity against human Calu-6 cells assessed as reduction in cell viability measured after 6 days by MTT assay; type: functional, cell-based; details: time 6.0 day
A549 = assay: Cytotoxicity against human A549 cells assessed as reduction in cell viability measured after 6 days by MTT assay; type: functional, cell-based; details: time 6.0 day
HCT-116 [2] = assay: Cytotoxicity against human HCT-116 cells assessed as reduction in cell viability measured after 6 days by MTT assay; type: functional, cell-based; details: time 6.0 day
MDA-MB-231 [3] = assay: Cytotoxicity against human MDA-MB-231 cells assessed as reduction in cell viability measured after 6 days by MTT assay; type: functional, cell-based; details: time 6.0 day
NCI-N87 [4] = assay: Cytotoxicity against human NCI-N87 cells assessed as reduction in cell viability measured after 6 days by MTT assay; type: functional, cell-based; details: time 6.0 day
DU-145 [5] = assay: Cytotoxicity against human DU-145 cells assessed as reduction in cell viability measured after 6 days by MTT assay; type: functional, cell-based; details: time 6.0 day
[6] = Induction of mitotic arrest in human RPE cells over expressing H2B-GFP-fused MYC assessed as increase in polyploidy at 40 uM measured after 24 to 72 hrs by fluorescence microscopy; type: functional; details: time 24-72 hrs
[7] = Induction of mitotic arrest in human RPE cells over expressing H2B-GFP-fused MYC assessed as minimum effective concentration for polyploidy measured after 24 to 72 hrs by fluorescence microscopy; type: functional; details: time 24-72 hrs, read-out: MEC
NCI-H23 [8] = assay: Cytotoxicity against human NCI-H23 cells assessed as reduction in cell proliferation at 10 uM measured after 3 days by MTT assay; type: functional, cell-based; details: time 3.0 day
HCT-116 [9] = assay: Cytotoxicity against human HCT-116 cells assessed as reduction in cell proliferation at 10 uM measured after 3 days by MTT assay; type: functional, cell-based; details: time 3.0 day
MDA-MB-231 [10] = assay: Cytotoxicity against human MDA-MB-231 cells assessed as reduction in cell proliferation at 10 uM measured after 3 days by MTT assay; type: functional, cell-based; details: time 3.0 day
NCI-N87 [11] = assay: Cytotoxicity against human NCI-N87 cells assessed as reduction in cell proliferation at 10 uM measured after 3 days by MTT assay; type: functional, cell-based; details: time 3.0 day
DU-145 [12] = assay: Cytotoxicity against human DU-145 cells assessed as reduction in cell proliferation at 10 uM measured after 3 days by MTT assay; type: functional, cell-based; details: time 3.0 day
[13] = Induction of mitotic arrest in human RPE cells over expressing H2B-GFP-fused MYC assessed as minimum effective concentration for polyploidy measured after 24 hrs by fluorescence microscopy; type: functional; details: read-out: MEC
[14] = Induction of mitotic arrest in human RPE cells over expressing H2B-GFP-fused MYC assessed as polyploidy cells in the interphase cell population at 40 uM measured after 72 hrs by fluorescence microscopy relative to control; type: functional
[15] = biological target: Aurora kinase B (Homo sapiens) (UniProt Q96GD4); assay: Inhibition of AURKB in human RPE cells over expressing H2B-GFP-fused MYC assessed as reduction in phosphorylation at Ser10 residues at 200 nM using histone H3 as substrate measured after 6 hrs by immunofluorescence assay; type: cell-based
[16] = biological target: T1, Aurora kinase A (Homo sapiens) (UniProt O14965); assay: Inhibition of AURKA in human RPE cells over expressing H2B-GFP-fused MYC assessed as reduction in autophosphorylation at Thr288 residues at 0.64 uM measured after 6 hrs by immunofluorescence assay; type: cell-based
T1 sequence (whole entry): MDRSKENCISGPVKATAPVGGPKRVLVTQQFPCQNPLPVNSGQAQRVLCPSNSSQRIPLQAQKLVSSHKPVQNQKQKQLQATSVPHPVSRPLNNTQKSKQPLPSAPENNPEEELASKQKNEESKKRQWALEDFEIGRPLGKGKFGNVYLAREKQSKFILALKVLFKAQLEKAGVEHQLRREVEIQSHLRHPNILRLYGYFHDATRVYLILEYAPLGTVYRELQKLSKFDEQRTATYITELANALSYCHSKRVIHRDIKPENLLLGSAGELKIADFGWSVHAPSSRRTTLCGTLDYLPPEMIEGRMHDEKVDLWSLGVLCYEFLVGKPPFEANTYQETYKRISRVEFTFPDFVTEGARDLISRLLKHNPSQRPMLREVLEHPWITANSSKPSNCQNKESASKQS

Chain of Aurora kinase B (Homo sapiens) (Q96GD4 whole entry, the tested form may be a part): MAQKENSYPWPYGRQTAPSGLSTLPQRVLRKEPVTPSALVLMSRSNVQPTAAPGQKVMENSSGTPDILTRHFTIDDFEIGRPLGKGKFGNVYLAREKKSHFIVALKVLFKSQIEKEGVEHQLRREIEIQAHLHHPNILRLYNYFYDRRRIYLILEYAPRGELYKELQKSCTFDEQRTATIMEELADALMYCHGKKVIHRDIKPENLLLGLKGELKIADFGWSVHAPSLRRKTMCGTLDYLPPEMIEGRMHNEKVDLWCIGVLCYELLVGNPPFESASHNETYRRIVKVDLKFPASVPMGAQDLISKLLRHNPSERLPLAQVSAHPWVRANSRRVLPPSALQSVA

Row | Structure (SMILES) | Activity (NCI-H23 [1]) | Activity (NCI-H460) | Activity (NCI-H596) | Activity (Calu-6) | Activity (A549) | Activity (HCT-116 [2]) | Activity (MDA-MB-231 [3]) | Activity (NCI-N87 [4]) | Activity (DU-145 [5]) | Activity [6] [%] | minimal effective concentration [7] [µM] | other results
1 | COc1ccc2c(c1)[C@]1(C[C@H]1c1ccc3c(/C=C/c4ccc(CN5C[C@@H](C)O[C@@H](C)C5)cc4)n[nH]c3c1)C(=O)N2 | Active | Active | Active | Active | Active | Active | Active | Active | Active | – | – | –
2 | COC(=O)C1=C(O)c2cc(OC)c(OC)cc2N(Cc2ccc(C)c(F)c2)C(=O)C1 | – | – | – | – | – | – | – | – | – | 90 | 0.312 | –
3 | COC(=O)C1=C(O)c2ccccc2N(Cc2cccc(C)c2)C(=O)C1 | – | – | – | – | – | – | – | – | – | 10 | 40 | –
4 | CC[C@@H]1C(=O)N(C)c2cnc(Nc3ccc(C(=O)NC4CCN(C)CC4)cc3OC)nc2N1C1CCCC1 | Active | Active | Active | Active | Active | Active | Active | Active | Active | – | – | –
5 | COC(=O)C1=C(O)c2ccccc2N(Cc2ccc(C(C)C)cc2)C(=O)C1 | – | – | – | – | – | – | – | – | – | 70 | 20 | –
6 | COC(=O)C1=C(O)c2ccccc2N(Cc2ccc(C)c(F)c2)C(=O)C1 | Active | Active | Active | Active | Active | Active | Active | Active | Active | 30 | 0.019 | Activity (NCI-H23 [8]): Active; Activity (HCT-116 [9]): Active; Activity (MDA-MB-231 [10]): Active; Activity (NCI-N87 [11]): Active; Activity (DU-145 [12]): Active
7 | COC(=O)C1=C(O)c2ccccc2N(Cc2ccc(C(F)(F)F)cc2)C(=O)C1 | – | – | – | – | – | – | – | – | – | 30 | 10 | –
8 | COC(=O)C1=C(O)c2ccccc2N(Cc2ccc(C(C)(C)C)cc2)C(=O)C1 | – | – | – | – | – | – | – | – | – | 5 | 40 | –
9 | COC(=O)C1=C(O)c2ccccc2N(Cc2ccc(C)c(C)c2)C(=O)C1 | – | – | – | – | – | – | – | – | – | 40 | 20 | –
10 | Cc1cc(Nc2cc(N3CCN(C)CC3)nc(Sc3ccc(NC(=O)C4CC4)cc3)n2)n[nH]1 | Active | Active | Active | Active | Active | Active | Active | Active | Active | – | – | –
11 | COC(=O)C1=C(O)c2ccccc2NC(=O)C1 | – | – | – | – | – | – | – | – | – | – | – | minimal effective concentration [13]: 40 µM; Activity [14]: 50%
12 | COC(=O)C1=C(O)c2ccccc2N(Cc2cccc(OC)c2)C(=O)C1 | – | – | – | – | – | – | – | – | – | 20 | 20 | –
13 | Cc1csc(-c2nnc(Nc3ccc(Oc4ncccc4-c4ccnc(N)n4)cc3)c3ccccc23)c1 | Active | Active | Active | Active | Active | Active | Active | Active | Active | – | – | –
14 | COC(=O)C1=C(O)c2ccccc2N(Cc2ccc(C#N)cc2)C(=O)C1 | – | – | – | – | – | – | – | – | – | 10 | 40 | –
15 | COC(=O)C1=C(O)c2scc(C)c2N(Cc2ccc(C)c(F)c2)C(=O)C1 | – | – | – | – | – | – | – | – | – | 100 | 0.312 | Activity (NCI-H23 [8]): Active; Activity (HCT-116 [9]): Active; Activity (MDA-MB-231 [10]): Active; Activity (NCI-N87 [11]): Active; Activity (DU-145 [12]): Active
16 | COC(=O)C1=C(O)c2ccccc2N(Cc2ccc(F)cc2)C(=O)C1 | – | – | – | – | – | – | – | – | – | 50 | 40 | –
17 | COC(=O)C1=C(O)c2ccccc2N(Cc2ccc(C)c(Cl)c2)C(=O)C1 | – | – | – | – | – | – | – | – | – | 100 | 5 | –
18 | COC(=O)C1=C(O)c2ccccc2N(Cc2ccc(OC)cc2)C(=O)C1 | Active | Active | Active | Active | Active | Active | Active | Active | Active | 80 | 0.156 | Activity (NCI-H23 [8]): Active; Activity (HCT-116 [9]): Active; Activity (MDA-MB-231 [10]): Active; Activity (NCI-N87 [11]): Active; Activity (DU-145 [12]): Active
19 | COC(=O)C1=C(O)c2ccccc2N(Cc2ccc(C)cc2C)C(=O)C1 | – | – | – | – | – | – | – | – | – | 100 | 1.25 | –
20 | COC(=O)C1=C(O)c2cc(F)ccc2N(Cc2ccc(C)c(F)c2)C(=O)C1 | – | – | – | – | – | – | – | – | – | 40 | 0.078 | –
21 | COC(=O)C1=C(O)c2ccccc2N(Cc2cccc(F)c2)C(=O)C1 | – | – | – | – | – | – | – | – | – | 40 | 40 | –
22 | COC(=O)C1=C(O)c2ccccc2N(Cc2ccccc2)C(=O)C1 | – | – | – | – | – | – | – | – | – | 50 | 40 | –
23 | CCc1ccc(CN2C(=O)CC(C(=O)OC)=C(O)c3ccccc32)cc1 | Active | Active | Active | Active | Active | Active | Active | Active | Active | 10 | 0.078 | Activity (NCI-H23 [8]): Active; Activity (MDA-MB-231 [10]): Active; Activity (NCI-N87 [11]): Active; Activity (DU-145 [12]): Active
24 | CCN(CCO)CCCOc1ccc2c(Nc3cc(CC(=O)Nc4cccc(F)c4)[nH]n3)ncnc2c1 | – | – | – | – | – | – | – | – | – | – | – | inhibition [15]: Active
25 | COc1cc(Nc2ncc3c(n2)-c2ccc(Cl)cc2C(c2c(F)cccc2OC)=NC3)ccc1C(=O)O | Active | Active | Active | Active | Active | Active | Active | Active | Active | – | – | –
26 | COC(=O)C1=C(O)c2ccccc2N(Cc2ccc(OC)c(F)c2)C(=O)C1 | Active | Active | Active | Active | Active | Active | Active | Active | Active | 70 | 0.039 | inhibition [16]: Active; Activity (NCI-H23 [8]): Active; Activity (HCT-116 [9]): Active; Activity (MDA-MB-231 [10]): Active; Activity (NCI-N87 [11]): Active; Activity (DU-145 [12]): Active
27 | COC(=O)C1=C(O)c2ccccc2N(Cc2ccc(C)cc2)C(=O)C1 | – | – | – | – | – | – | – | – | – | 10 | 0.625 | Activity (NCI-H23 [8]): Active; Activity (HCT-116 [9]): Active; Activity (MDA-MB-231 [10]): Active; Activity (NCI-N87 [11]): Active; Activity (DU-145 [12]): Active
